The source made the active and inactive calls. The rule behind the calls is not given here.
What follows are compounds tested against Alkaline phosphatase, tissue-nonspecific isozyme (Homo sapiens) (UniProt P05186) (assay: human TNAP activity change by analogs – biochemical, set 2, selectivity assay for mouse IAP activator project, SAR follow-up (AID 588605)). Conditions: TNAP enzyme assay, SAR counter-screen for mouse IAP activators.
Alkaline phosphatase, tissue-nonspecific isozyme (Homo sapiens), sequence (P05186 whole entry, looked up): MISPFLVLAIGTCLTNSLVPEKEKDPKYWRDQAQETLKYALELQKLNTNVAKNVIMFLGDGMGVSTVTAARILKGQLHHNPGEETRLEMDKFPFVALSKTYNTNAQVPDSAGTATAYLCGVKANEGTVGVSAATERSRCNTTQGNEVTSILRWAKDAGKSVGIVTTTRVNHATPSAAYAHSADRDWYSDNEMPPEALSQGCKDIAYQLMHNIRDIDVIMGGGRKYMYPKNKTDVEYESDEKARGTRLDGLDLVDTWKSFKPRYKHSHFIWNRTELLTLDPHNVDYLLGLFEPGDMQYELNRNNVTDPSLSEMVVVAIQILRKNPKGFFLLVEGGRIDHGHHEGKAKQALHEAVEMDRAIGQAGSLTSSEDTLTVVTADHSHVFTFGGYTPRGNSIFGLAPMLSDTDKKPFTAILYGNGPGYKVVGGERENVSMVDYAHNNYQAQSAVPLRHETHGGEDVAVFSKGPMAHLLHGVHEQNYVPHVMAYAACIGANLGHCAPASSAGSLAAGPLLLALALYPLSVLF

| EC50 | SMILES |
| --- | --- |
| 95.2 µM | CN(C)S(=O)(=O)c1ccc(NC(=S)NCC(c2ccccc2)c2ccccc2)cc1 |
| 29 µM | CCN(CC)S(=O)(=O)c1ccc(NC(=S)NC(c2ccccc2)c2ccccc2)cc1 |
| > 100 µM (inactive) | CN(C)CCCNC(=S)Nc1cccc(S(=O)(=O)N(C)C)c1 |
| > 100 µM (inactive) | Cc1ccc(CNC(=S)Nc2cccc(S(=O)(=O)N(C)C)c2)cc1 |
| 25.5 µM | O=S(=O)(c1ccc(NC(=S)NCC(c2ccccc2)c2ccccc2)cc1)N1CCCCC1 |
| 40.1 µM | COc1ccc(CCNC(=S)Nc2ccc(S(=O)(=O)N3CCCCC3)cc2)cc1 |
| > 100 µM (inactive) | CN(C)S(=O)(=O)c1cccc(NC(=S)NCCN2CCCC2)c1 |
| 38.6 µM | CN(C)S(=O)(=O)c1ccc(NC(=S)NCCC(c2ccccc2)c2ccccc2)cc1 |
| > 100 µM (inactive) | CCOc1cc(CCNC(=S)Nc2ccc(S(=O)(=O)N(C)C)cc2)ccc1OC |
| 75.3 µM | COc1ccc(CNC(=S)Nc2ccc(S(=O)(=O)N3CCCCC3)cc2)cc1OC |
| > 100 µM (inactive) | CN(C)S(=O)(=O)c1ccc(NC(=S)NCc2ccc(Cl)cc2)cc1 |
| 47.2 µM | O=S(=O)(c1ccc(NC(=S)NCCC(c2ccccc2)c2ccccc2)cc1)N1CCCCC1 |
| > 100 µM (inactive) | Cc1ccc(S(=O)(=O)N(C)C)cc1NC(=S)NCCCn1ccnc1 |
| 18.9 µM | CC1CCN(S(=O)(=O)c2ccc(NC(=S)NCCC(c3ccccc3)c3ccccc3)cc2)CC1 |
| 97.8 µM | CN(C)S(=O)(=O)c1cccc(NC(=S)NCCc2ccccc2)c1 |
| > 100 µM (inactive) | CN(C)S(=O)(=O)c1ccc(NC(=S)NCCc2cccc(O)c2)cc1 |
| > 100 µM (inactive) | O=C(NC(=S)Nc1cc(S(=O)(=O)N2CCOCC2)ccc1N1CCOCC1)c1ccco1 |
| > 100 µM (inactive) | CN(CCc1ccccc1)C(=S)Nc1cccc(S(=O)(=O)N(C)C)c1 |
| > 100 µM (inactive) | Cc1ccc(S(=O)(=O)N(C)C)cc1NC(=S)NC1CCN(Cc2ccccc2)CC1 |
| 57.9 µM | Cc1ccc(S(=O)(=O)N(C)C)cc1NC(=S)NC(C)CCCC(C)C (centres undefined) |
| 92.5 µM | CN(C)S(=O)(=O)c1cccc(NC(=S)NCc2ccc(Cl)cc2)c1 |
| > 100 µM (inactive) | CC1CCN(S(=O)(=O)c2ccc(NC(=S)NC(c3ccccc3)c3ccccc3)cc2)CC1 |

| EC50 | SMILES |
| --- | --- |
| > 100 µM (inactive) | CN(C)S(=O)(=O)c1cccc(NC(=S)NCCc2cccc(F)c2)c1 |
| 20 µM | CN(C)S(=O)(=O)c1cccc(NC(=S)NC(c2ccccc2)c2ccccc2)c1 |
| > 100 µM (inactive) | CCN(CC)CCCNC(=S)Nc1cccc(S(=O)(=O)N(C)C)c1 |
| > 100 µM (inactive) | CN(C)S(=O)(=O)c1cccc(NC(=S)NCCC(=O)N2CCCC2)c1 |
| > 100 µM (inactive) | O=C(CCc1ccccc1)NC(=S)Nc1cccc(S(=O)(=O)N2CCCC2)c1 |
| > 100 µM (inactive) | CC(CNC(=S)Nc1cccc(S(=O)(=O)N(C)C)c1)N1CCN(c2ccccc2)CC1 (centres undefined) |
| > 100 µM (inactive) | CN(C)S(=O)(=O)c1cccc(NC(=S)NCCCN2CCCC2=O)c1 |
| 29.7 µM | CCN(CC)S(=O)(=O)c1ccc(NC(=S)NCCC(c2ccccc2)c2ccccc2)cc1 |
| 57.9 µM | CN(C)S(=O)(=O)c1cccc(NC(=S)NCCc2cccc(Br)c2)c1 |
| 22.9 µM | CN(C)S(=O)(=O)c1cccc(NC(=S)NCC(c2ccccc2)c2ccccc2)c1 |
| > 100 µM (inactive) | Cc1ccc(C)c(NC(=S)Nc2ccc(S(=O)(=O)N3CCCCC3)cc2)c1 |
| 53.6 µM | O=S(=O)(c1ccc(NC(=S)NCc2cccc(F)c2)cc1)N1CCCCC1 |
| 49.8 µM | O=S(=O)(c1ccc(NC(=S)NCCC(c2ccccc2)c2ccccc2)cc1)N1CCCC1 |
| > 100 µM (inactive) | CN(C)S(=O)(=O)c1cccc(NC(=S)NCCc2ccc(F)cc2)c1 |
| > 100 µM (inactive) | CN(C)S(=O)(=O)c1cccc(NC(=S)NCCC(c2ccccc2)c2ccccc2)c1 |
| 87.1 µM | Cc1ccc(S(=O)(=O)N(C)C)cc1NC(=S)NC(C)CCC(C)C (centres undefined) |
| > 100 µM (inactive) | CC1CC(NC(=S)Nc2cccc(S(=O)(=O)N(C)C)c2)CC(C)N1 (centres undefined) |
| 19.9 µM | O=S(=O)(c1ccc(NC(=S)NCC(c2ccccc2)c2ccccc2)cc1)N1CCCC1 |
| 18.4 µM | CN(C)S(=O)(=O)c1ccc(NC(=S)NC(c2ccccc2)c2ccccc2)cc1 |
| 65.5 µM | CN(C)S(=O)(=O)c1ccc(NC(=S)NCCc2cccc(Br)c2)cc1 |
| > 100 µM (inactive) | CN(C)S(=O)(=O)c1ccc(NC(=S)NCCN2CCCC2)cc1 |
| 89.9 µM | COc1ccccc1CNC(=S)Nc1ccc(S(=O)(=O)N(C)C)cc1 |

| EC50 | SMILES |
| --- | --- |
| > 100 µM (inactive) | CN(C)S(=O)(=O)c1cccc(NC(=S)NCCCn2ccnc2)c1 |
| > 100 µM (inactive) | Cc1ccc(S(=O)(=O)N(C)C)cc1NC(=S)NC(=O)C12CC3CC(CC(C3)C1)C2 |
| 45.8 µM | CCN(CC)S(=O)(=O)c1ccc(NC(=S)NCC(c2ccccc2)c2ccccc2)cc1 |
| > 100 µM (inactive) | CCN(CC)c1ccc(C(=O)NC(=S)Nc2cc(S(=O)(=O)N3CCOCC3)ccc2-n2cncn2)cc1 |
| 62.8 µM | CC(CCc1ccccc1)NC(=S)Nc1cccc(S(=O)(=O)N(C)C)c1 (centres undefined) |
| 94.4 µM | COc1ccc(CCNC(=S)Nc2ccc(S(=O)(=O)N3CCCCC3)cc2)cc1OC |
| 26.1 µM | O=S(=O)(c1ccc(NC(=S)NC(c2ccccc2)c2ccccc2)cc1)N1CCCC1 |
| > 100 µM (inactive) | O=C(NC(=S)Nc1cc(S(=O)(=O)N2CCOCC2)ccc1O)c1ccco1 |
| 75.6 µM | Cc1ccccc1CNC(=S)Nc1ccc(S(=O)(=O)N(C)C)cc1 |
| > 100 µM (inactive) | CN(CCc1ccccn1)C(=S)Nc1cccc(S(=O)(=O)N(C)C)c1 |
| > 100 µM (inactive) | CN(C)S(=O)(=O)c1cccc(NC(=S)NCCc2cccc(O)c2)c1 |
| > 100 µM (inactive) | CN(C)S(=O)(=O)c1ccc(NC(=S)NCCc2ccccc2)cc1 |
| 91.5 µM | CN(C)S(=O)(=O)c1cccc(NC(=S)NC(C)(C)CC(C)(C)C)c1 |
| > 100 µM (inactive) | O=c1c2ccccc2[nH]c(=S)n1-c1cccc(S(=O)(=O)N2CCCC2)c1 |
| 11 µM | O=S(=O)(c1ccc(NC(=S)NC(c2ccccc2)c2ccccc2)cc1)N1CCCCC1 |
| 86.1 µM | Cc1ccc(CNC(=S)Nc2ccc(S(=O)(=O)N(C)C)cc2)cc1 |
| 86.7 µM | CN(C)S(=O)(=O)c1cccc(NC(=S)NCCc2ccc(Br)cc2)c1 |
| > 100 µM (inactive) | CN(C)CC(C)(C)CNC(=S)Nc1cccc(S(=O)(=O)N(C)C)c1 |
| > 100 µM (inactive) | COc1cccc(CNC(=S)Nc2ccc(S(=O)(=O)N(C)C)cc2)c1 |
| 90.3 µM | COc1cccc(CCNC(=S)Nc2cccc(S(=O)(=O)N(C)C)c2)c1 |

— PubChem BioAssay AID588605 (Sanford-Burnham Center for Chemical Genomics, 2011)
